According to US20120122860A1, “SOLID FORMS OF SULFONAMIDES AND AMINO ACIDS” (Plexxikon, Inc., priority 2009, published 2012):

Legend:
B-Raf V600E = B-Raf V600E (Homo sapiens, UniProt P15056, V600E); experiment: Kinase activity assay, B-Raf V600E; type: biochemical; conditions: read-out: activity toward kinase B-Raf V600E, IC50
B-Raf = B-Raf (Homo sapiens, UniProt P15056); experiment: Kinase activity assay, B-Raf; type: biochemical; conditions: read-out: activity toward kinase B-Raf, IC50
C-Raf = C-Raf (Homo sapiens, UniProt P04049); experiment: Kinase activity assay, C-Raf
Kdr = Kdr (Homo sapiens, UniProt P35968); experiment: Kinase activity assay, Kdr
Chain of Kdr (P35968 20-1356): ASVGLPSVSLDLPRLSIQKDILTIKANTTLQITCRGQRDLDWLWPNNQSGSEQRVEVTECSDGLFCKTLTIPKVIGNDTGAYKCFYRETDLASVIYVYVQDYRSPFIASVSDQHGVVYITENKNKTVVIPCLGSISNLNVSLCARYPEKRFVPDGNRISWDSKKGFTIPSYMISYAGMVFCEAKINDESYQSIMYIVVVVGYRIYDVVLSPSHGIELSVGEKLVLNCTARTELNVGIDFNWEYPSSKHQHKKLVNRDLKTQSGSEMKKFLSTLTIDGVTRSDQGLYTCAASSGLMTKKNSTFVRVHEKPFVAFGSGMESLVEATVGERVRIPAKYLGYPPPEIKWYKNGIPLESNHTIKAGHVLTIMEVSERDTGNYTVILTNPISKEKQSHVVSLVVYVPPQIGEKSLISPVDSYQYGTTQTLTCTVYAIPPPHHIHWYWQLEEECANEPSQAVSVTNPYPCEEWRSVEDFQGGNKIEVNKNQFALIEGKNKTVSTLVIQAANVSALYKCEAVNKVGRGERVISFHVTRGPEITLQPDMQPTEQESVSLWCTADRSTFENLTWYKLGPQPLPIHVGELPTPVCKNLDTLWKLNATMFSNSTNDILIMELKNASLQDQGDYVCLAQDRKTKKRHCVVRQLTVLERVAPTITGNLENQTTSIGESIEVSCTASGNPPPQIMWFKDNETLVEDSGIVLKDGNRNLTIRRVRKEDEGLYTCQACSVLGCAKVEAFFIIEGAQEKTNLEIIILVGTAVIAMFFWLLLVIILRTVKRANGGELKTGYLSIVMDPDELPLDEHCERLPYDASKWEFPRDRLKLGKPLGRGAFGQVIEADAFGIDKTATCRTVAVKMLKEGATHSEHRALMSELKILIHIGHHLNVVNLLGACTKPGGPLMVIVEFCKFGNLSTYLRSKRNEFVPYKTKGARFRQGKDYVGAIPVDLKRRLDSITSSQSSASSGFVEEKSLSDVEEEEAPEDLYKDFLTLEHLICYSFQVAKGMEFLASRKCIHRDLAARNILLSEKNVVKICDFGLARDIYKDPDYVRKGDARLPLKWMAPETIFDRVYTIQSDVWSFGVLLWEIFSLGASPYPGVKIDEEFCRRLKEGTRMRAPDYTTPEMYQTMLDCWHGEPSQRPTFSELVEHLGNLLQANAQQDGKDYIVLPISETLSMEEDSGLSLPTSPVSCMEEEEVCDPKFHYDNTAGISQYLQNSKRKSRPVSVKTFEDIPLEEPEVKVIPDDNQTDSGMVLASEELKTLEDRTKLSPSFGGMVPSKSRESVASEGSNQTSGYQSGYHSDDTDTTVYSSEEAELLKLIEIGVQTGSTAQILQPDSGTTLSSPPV

Chain of C-Raf (P04049 whole entry): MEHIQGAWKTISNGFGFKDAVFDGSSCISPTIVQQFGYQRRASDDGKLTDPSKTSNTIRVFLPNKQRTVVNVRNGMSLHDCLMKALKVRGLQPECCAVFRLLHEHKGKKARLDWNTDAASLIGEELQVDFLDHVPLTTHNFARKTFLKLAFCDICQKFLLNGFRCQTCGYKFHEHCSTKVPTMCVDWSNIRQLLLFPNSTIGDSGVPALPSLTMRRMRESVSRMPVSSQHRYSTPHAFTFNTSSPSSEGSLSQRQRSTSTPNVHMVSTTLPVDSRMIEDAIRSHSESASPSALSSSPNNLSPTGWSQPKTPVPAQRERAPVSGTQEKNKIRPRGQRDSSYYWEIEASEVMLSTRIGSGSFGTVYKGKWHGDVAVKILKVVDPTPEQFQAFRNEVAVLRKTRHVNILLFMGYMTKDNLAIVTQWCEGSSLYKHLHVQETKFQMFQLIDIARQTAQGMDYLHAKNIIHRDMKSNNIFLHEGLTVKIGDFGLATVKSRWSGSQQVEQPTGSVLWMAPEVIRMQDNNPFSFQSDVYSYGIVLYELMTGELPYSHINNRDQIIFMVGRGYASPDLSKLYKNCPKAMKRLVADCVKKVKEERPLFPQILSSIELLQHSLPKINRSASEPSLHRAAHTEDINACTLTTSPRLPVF
Chain of B-Raf V600E (P15056 whole entry V600E): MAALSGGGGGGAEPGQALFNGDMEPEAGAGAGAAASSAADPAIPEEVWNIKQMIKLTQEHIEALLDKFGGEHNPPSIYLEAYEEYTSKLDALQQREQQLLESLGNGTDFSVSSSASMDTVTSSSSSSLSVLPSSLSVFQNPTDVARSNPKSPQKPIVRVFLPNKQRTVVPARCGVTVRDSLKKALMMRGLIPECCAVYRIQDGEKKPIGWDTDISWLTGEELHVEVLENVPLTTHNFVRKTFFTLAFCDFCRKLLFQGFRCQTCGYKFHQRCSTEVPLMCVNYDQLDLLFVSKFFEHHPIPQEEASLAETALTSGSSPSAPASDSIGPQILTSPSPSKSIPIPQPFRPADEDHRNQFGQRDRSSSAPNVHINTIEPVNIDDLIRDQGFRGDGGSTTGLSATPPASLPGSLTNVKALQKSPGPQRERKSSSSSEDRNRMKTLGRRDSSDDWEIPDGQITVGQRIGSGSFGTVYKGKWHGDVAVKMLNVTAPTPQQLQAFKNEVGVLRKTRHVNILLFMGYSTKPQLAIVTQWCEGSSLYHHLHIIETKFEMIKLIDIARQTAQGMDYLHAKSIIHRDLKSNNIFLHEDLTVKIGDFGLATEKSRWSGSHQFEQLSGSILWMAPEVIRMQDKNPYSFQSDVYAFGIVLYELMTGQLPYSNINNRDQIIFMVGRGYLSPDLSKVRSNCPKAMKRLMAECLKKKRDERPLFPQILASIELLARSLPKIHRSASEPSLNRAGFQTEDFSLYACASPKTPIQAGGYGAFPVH
Chain of B-Raf (P15056 whole entry): as the sequence (P15056 whole entry V600E) above, with E600V counted along it

N#Cc1cnc2[nH]cc(C(=O)c3c(F)ccc(NS(=O)(=O)c4ccc(F)cc4)c3F)c2c1 [P-2028, N-[3-(5-Cyano-1H-pyrrolo[2,3-b]pyridine-3-carbonyl)-2,4-difluoro-phenyl]-4-fluoro-benzenesulfonamide]
IC50 (B-Raf V600E): ≤ 10 µM | IC50 (B-Raf): ≤ 10 µM | IC50 (C-Raf): ≤ 10 µM

N#Cc1cnc2[nH]cc(C(=O)c3cccc(NS(=O)(=O)c4ccc(F)cc4)c3F)c2c1 [P-2050, N-[3-(5-Cyano-1H-pyrrolo[2,3-b]pyridine-3-carbonyl)-2-fluoro-phenyl]-4-fluoro-benzenesulfonamide]
IC50 (B-Raf V600E): ≤ 10 µM | IC50 (B-Raf): ≤ 10 µM | IC50 (C-Raf): ≤ 10 µM

COc1ccnc2[nH]cc(C(=O)c3c(F)ccc(NS(=O)(=O)c4ncn[nH]4)c3F)c12 [P-2068, 2H-[1,2,4]Triazole-3-sulfonic acid [2,4-difluoro-3-(4-methoxy-1H-pyrrolo[2,3-b]pyridine-3-carbonyl)-phenyl]-amide]
IC50 (B-Raf V600E): ≤ 10 µM | IC50 (C-Raf): ≤ 10 µM

Cc1oncc1S(=O)(=O)Nc1ccc(F)c(C(=O)c2c[nH]c3ncc(C#N)cc23)c1F [P-2081, 5-Methyl-isoxazole-4-sulfonic acid [3-(5-cyano-1H-pyrrolo[2,3-b]pyridine-3-carbonyl)-2,4-difluoro-phenyl]-amide]
IC50 (B-Raf V600E): ≤ 10 µM | IC50 (Kdr): ≤ 10 µM | IC50 (C-Raf): ≤ 10 µM

Cc1c(S(=O)(=O)Nc2ccc(F)c(C(=O)c3c[nH]c4ncc(C#N)cc34)c2F)cnn1C [P-2082, 1,5-Dimethyl-1H-pyrazole-4-sulfonic acid [3-(5-cyano-1H-pyrrolo[2,3-b]pyridine-3-carbonyl)-2,4-difluoro-phenyl]-amide]
IC50 (B-Raf V600E): ≤ 10 µM | IC50 (Kdr): ≤ 10 µM

CCn1cc(S(=O)(=O)Nc2ccc(F)c(C(=O)c3c[nH]c4ncc(C#N)cc34)c2F)cn1 [P-2083, 1-Ethyl-1H-pyrazole-4-sulfonic acid [3-(5-cyano-1H-pyrrolo[2,3-b]pyridine-3-carbonyl)-2,4-difluoro-phenyl]-amide]
IC50 (B-Raf V600E): ≤ 10 µM | IC50 (C-Raf): ≤ 10 µM

Cn1cc(S(=O)(=O)Nc2ccc(F)c(C(=O)c3c[nH]c4ncc(C#N)cc34)c2F)cn1 [P-2084, 1-Methyl-1H-pyrazole-4-sulfonic acid [3-(5-cyano-1H-pyrrolo[2,3-b]pyridine-3-carbonyl)-2,4-difluoro-phenyl]-amide]
IC50 (B-Raf V600E): ≤ 10 µM | IC50 (B-Raf): ≤ 10 µM | IC50 (C-Raf): ≤ 10 µM

COc1ccc(S(=O)(=O)Nc2ccc(F)c(C(=O)c3c[nH]c4ncc(C#N)cc34)c2F)cn1 [P-2085, 6-Methoxy-pyridine-3-sulfonic acid [3-(5-cyano-1H-pyrrolo[2,3-b]pyridine-3-carbonyl)-2,4-difluoro-phenyl]-amide]
IC50 (B-Raf V600E): ≤ 10 µM | IC50 (B-Raf): ≤ 10 µM | IC50 (C-Raf): ≤ 10 µM

CCn1cc(S(=O)(=O)Nc2cccc(C(=O)c3c[nH]c4ncc(C#N)cc34)c2F)cn1 [P-2089, 1-Ethyl-1H-pyrazole-4-sulfonic acid [3-(5-cyano-1H-pyrrolo[2,3-b]pyridine-3-carbonyl)-2-fluoro-phenyl]-amide]
IC50 (B-Raf V600E): ≤ 10 µM | IC50 (Kdr): ≤ 10 µM | IC50 (C-Raf): ≤ 10 µM

Cn1cc(S(=O)(=O)Nc2cccc(C(=O)c3c[nH]c4ncc(C#N)cc34)c2F)cn1 [P-2090, 1-Methyl-1H-pyrazole-4-sulfonic acid [3-(5-cyano-1H-pyrrolo[2,3-b]pyridine-3-carbonyl)-2-fluoro-phenyl]-amide]
IC50 (B-Raf V600E): ≤ 10 µM | IC50 (B-Raf): ≤ 10 µM | IC50 (C-Raf): ≤ 10 µM

Cc1c(S(=O)(=O)Nc2cccc(C(=O)c3c[nH]c4ncc(C#N)cc34)c2F)cnn1C [P-2091, 1,5-Dimethyl-1H-pyrazole-4-sulfonic acid [3-(5-cyano-1H-pyrrolo[2,3-b]pyridine-3-carbonyl)-2-fluoro-phenyl]-amide]
IC50 (B-Raf V600E): ≤ 10 µM

COc1ccc(S(=O)(=O)Nc2cccc(C(=O)c3c[nH]c4ncc(C#N)cc34)c2F)cn1 [P-2092, 6-Methoxy-pyridine-3-sulfonic acid [3-(5-cyano-1H-pyrrolo[2,3-b]pyridine-3-carbonyl)-2-fluoro-phenyl]-amide]
IC50 (B-Raf V600E): ≤ 10 µM | IC50 (C-Raf): ≤ 10 µM

N#Cc1cnc2[nH]cc(C(=O)c3c(F)ccc(NS(=O)(=O)Cc4ccccn4)c3F)c2c1 [P-2093, N-[3-(5-Cyano-1H-pyrrolo[2,3-b]pyridine-3-carbonyl)-2,4-difluoro-phenyl]-C-pyridin-2-yl-methanesulfonamide]
IC50 (B-Raf V600E): ≤ 10 µM | IC50 (Kdr): ≤ 10 µM

N#Cc1cnc2[nH]cc(C(=O)c3c(F)ccc(NS(=O)(=O)Cc4ccncc4)c3F)c2c1 [P-2095, N-[3-(5-Cyano-1H-pyrrolo[2,3-b]pyridine-3-carbonyl)-2,4-difluoro-phenyl]-C-pyridin-4-yl-methanesulfonamide]
IC50 (B-Raf V600E): ≤ 10 µM | IC50 (Kdr): ≤ 10 µM

N#Cc1cnc2[nH]cc(C(=O)c3cccc(NS(=O)(=O)Cc4cccnc4)c3F)c2c1 [P-2096, N-[3-(5-Cyano-1H-pyrrolo[2,3-b]pyridine-3-carbonyl)-2-fluoro-phenyl]-C-pyridin-3-yl-methanesulfonamide]
IC50 (B-Raf V600E): ≤ 10 µM | IC50 (Kdr): ≤ 10 µM

N#Cc1cnc2[nH]cc(C(=O)c3cccc(NS(=O)(=O)Cc4ccncc4)c3F)c2c1 [P-2097, N-[3-(5-Cyano-1H-pyrrolo[2,3-b]pyridine-3-carbonyl)-2-fluoro-phenyl]-C-pyridin-4-yl-methanesulfonamide]
IC50 (B-Raf V600E): ≤ 10 µM | IC50 (Kdr): ≤ 10 µM

N#Cc1cnc2[nH]cc(C(=O)c3cccc(NS(=O)(=O)Cc4ccccn4)c3F)c2c1 [P-2098, N-[3-(5-Cyano-1H-pyrrolo[2,3-b]pyridine-3-carbonyl)-2-fluoro-phenyl]-C-pyridin-2-yl-methanesulfonamide]
IC50 (B-Raf V600E): ≤ 10 µM

CCCS(=O)(=O)Nc1ccc(F)c(C(=O)c2c[nH]c3ncc(S(C)(=O)=O)cc23)c1F [P-2173, Propane-1-sulfonic acid [2,4-difluoro-3-(5-methanesulfonyl-1H-pyrrolo[2,3-b]pyridine-3-carbonyl)-phenyl]-amide]
IC50 (B-Raf V600E): ≤ 10 µM | IC50 (B-Raf): ≤ 10 µM

CCCS(=O)(=O)Nc1ccc(F)c(C(=O)c2c[nH]c3ncc(-c4ccc(S(=O)(=O)N5CCCCC5)cc4)cc23)c1F [P-2186, Propane-1-sulfonic acid (2,4-difluoro-3-{5-[4-(piperidine-1-sulfonyl)-phenyl]-1H-pyrrolo[2,3-b]pyridine-3-carbonyl}-phenyl)-amide]
IC50 (B-Raf V600E): ≤ 10 µM | IC50 (Kdr): ≤ 10 µM | IC50 (B-Raf): ≤ 10 µM

CCCS(=O)(=O)Nc1ccc(F)c(C(=O)c2c[nH]c3ncc(-c4cnc(SC)nc4)cc23)c1F [P-2189, Propane-1-sulfonic acid {2,4-difluoro-3-[5-(2-methylsulfanyl-pyrimidin-5-yl)-1H-pyrrolo[2,3-b]pyridine-3-carbonyl]-phenyl}-amide]
IC50 (B-Raf V600E): ≤ 10 µM | IC50 (Kdr): ≤ 10 µM | IC50 (B-Raf): ≤ 10 µM

CCCS(=O)(=O)Nc1ccc(F)c(C(=O)c2c[nH]c3ncc(-c4cnc(N5CCOCC5)nc4)cc23)c1F [P-2197, Propane-1-sulfonic acid {2,4-difluoro-3-[5-(2-morpholin-4-yl-pyrimidin-5-yl)-1H-pyrrolo[2,3-b]pyridine-3-carbonyl]-phenyl}-amide]
IC50 (B-Raf V600E): ≤ 10 µM | IC50 (Kdr): ≤ 10 µM | IC50 (B-Raf): ≤ 10 µM

CS(=O)(=O)Nc1ccc(F)c(C(=O)c2c[nH]c3ncc(C#N)cc23)c1F [P-2294, N-[3-(5-Cyano-1H-pyrrolo[2,3-b]pyridine-3-carbonyl)-2,4-difluoro-phenyl]-methanesulfonamide]
IC50 (B-Raf V600E): ≤ 10 µM | IC50 (Kdr): ≤ 10 µM | IC50 (C-Raf): ≤ 10 µM

O=C(c1c(F)ccc(NS(=O)(=O)C2(C(=O)O)CC2)c1F)c1c[nH]c2ncc(Br)cc12 [P-2349, 1-[3-(5-Bromo-1H-pyrrolo[2,3-b]pyridine-3-carbonyl)-2,4-difluoro-phenylsulfamoyl]-cyclopropanecarboxylic acid]
IC50 (Kdr): ≤ 10 µM

CC(C)S(=O)(=O)Nc1cccc(C(=O)c2c[nH]c3ncc(C#N)cc23)c1F [P-2411, Propane-2-sulfonic acid [3-(5-cyano-1H-pyrrolo[2,3-b]pyridine-3-carbonyl)-2-fluoro-phenyl]-amide]
IC50 (B-Raf V600E): ≤ 10 µM | IC50 (C-Raf): ≤ 10 µM

CC(C)CS(=O)(=O)Nc1cccc(C(=O)c2c[nH]c3ncc(C#N)cc23)c1F [P-2412, 2-Methyl-propane-1-sulfonic acid [3-(5-cyano-1H-pyrrolo[2,3-b]pyridine-3-carbonyl)-2-fluoro-phenyl]-amide]
IC50 (B-Raf V600E): ≤ 10 µM | IC50 (B-Raf): ≤ 10 µM | IC50 (C-Raf): ≤ 10 µM

N#Cc1cnc2[nH]cc(C(=O)c3cccc(NS(=O)(=O)N4CCOCC4)c3F)c2c1 [P-2421, Morpholine-4-sulfonic acid [3-(5-cyano-1H-pyrrolo[2,3-b]pyridine-3-carbonyl)-2-fluoro-phenyl]-amide]
IC50 (B-Raf V600E): ≤ 10 µM | IC50 (C-Raf): ≤ 10 µM

COc1ncc(-c2cnc3[nH]cc(C(=O)c4cccc(NS(=O)(=O)N(C)C)c4F)c3c2)cn1 [P-2424, N,N-dimethylamino-sulfonic acid {2-fluoro-3-[5-(2-methoxy-pyrimidin-5-yl)-1H-pyrrolo[2,3-b]pyridine-3-carbonyl]-phenyl}-amide]
IC50 (B-Raf V600E): ≤ 10 µM | IC50 (Kdr): ≤ 10 µM | IC50 (C-Raf): ≤ 10 µM

O=C(c1cccc(NS(=O)(=O)C2CCCC2)c1)c1c[nH]c2ncc(F)cc12 [P-2463, Cyclopentanesulfonic acid [3-(5-fluoro-1H-pyrrolo[2,3-b]pyridine-3-carbonyl)-phenyl]-amide]
IC50 (Kdr): ≤ 10 µM

CN(C)S(=O)(=O)Nc1cccc(C(=O)c2c[nH]c3ncc(Cl)cc23)c1 [P-2470, N,N-dimethylamino-sulfonic acid [3-(5-chloro-1H-pyrrolo[2,3-b]pyridine-3-carbonyl)-phenyl]-amide]
IC50 (Kdr): ≤ 10 µM

O=C(c1c(F)ccc(NS(=O)(=O)c2ccc(C(F)(F)F)cc2)c1F)c1c[nH]c2ncc(C3CC3)cc12 [P-2483, N-[3-(5-Cyclopropyl-1H-pyrrolo[2,3-b]pyridine-3-carbonyl)-2,4-difluoro-phenyl]-4-trifluoromethyl-benzenesulfonamide]
IC50 (Kdr): ≤ 10 µM | IC50 (C-Raf): ≤ 10 µM
